Source: patent US7893074B2, “2, 4-pyrimidinediamines useful in the treatment of neoplastic diseases, inflammatory and immune system disorders” (Novartis AG, priority 2003, dated 2011)
Like-named read-outs stand apart in the source and are kept apart here.

How the values were obtained:
[1] = biological target: IGF-IR (Homo sapiens, UniProt P08069); test: Cellular Capture ELISA of IGF-I induced autophosphorylation of the IGF-IR; assay type: cell-based; conditions: read-out: IGF-1R IC50
Protocol: In this assay the activity of the compounds of the invention against Insulin-like growth factor I (IGF-I) induced autophosphorylation of the IGF-IR is determined.

[2] = tested on: T Cell; test: T Cell Migration; assay type: cell-based; conditions: T-cell
[3] = biological target: FAK (Mus musculus, UniProt P34152); test: Phos IC50 (phosphorylation); assay type: cell-based
[4] = tested on: Mouse mammary carcinoma 4T1 cells; test: Anchorage-independent tumor cell growth assay; assay type: cell-based; conditions: Mus musculus, 4T1
Protocol: Cells are cultured for 2 h and inhibitors are added at various concentrations in a final concentration of 0.1% DMSO. After 48 h, cell growth is assayed with the cell counting kit-8 (Wako Pure Chemical), which uses a water soluble tetrazolium salt WST8. Twenty μL of the reagent is added into each well and cells are further cultured for 2 h. The optical density is measured at 450 nm.

[5] = biological target: Focal Adhesion Kinase (FAK) (Homo sapiens, UniProt Q05397); test: FAK assay system (Focal Adhesion Kinase inhibition); assay type: biochemical
[6] = tested on: human NPM-ALK overexpressing murine BaF3 cells; test: Growth inhibition of BaF3-NPM-ALK cells (Yopro staining); assay type: cell-based; conditions: Mus musculus, 48 h; two days incubation
From the text: The expression of NPM-ALK is achieved by transfecting the BaF3 cell line with an expression vector pCIneo™ (Promega Corp., Madison Wis., USA) coding for NPM-ALK and subsequent selection of G418 resistant cells. Non-transfected BaF3 cells depend on IL-3 for cell survival. In contrast NPM-ALK expressing BaF3 cells (named BaF3-NPM-ALK hereinafter) can proliferate in the absence of IL-3 because they obtain proliferative signal through NPM-ALK kinase. Putative inhibitors of the NPM-ALK kinase therefore abolish the growth signal and result in antiproliferative activity. […] The inhibitory activity of the compounds of formula I is determined, briefly, as follows: BaF3-NPM-ALK cells (15,000/microtitre plate well) are transferred to 96-well microtitre plates. […] The growth of the BaF3-NPM-ALK cells is measured by means of Yopro™ staining [T Idziorek et al. J. Immunol. […] Cell lysis is completed within 60 min at room temperature and total amount of Yopro bound to DNA is determined by measurement using the Cytofluor II 96-well reader (PerSeptive Biosystems) with the following settings: Excitation (nm) 485/20 and Emission (nm) 530/25. IC50 values are determined by a computer-aided system using the formula: IC50=[(ABStest−ABSstart)/(ABScontrol−ABSstart)]×100. […]

[7] = biological target: GST-ALK protein tyrosine kinase (Homo sapiens, UniProt Q9UM73); test: In vitro enzyme assay using GST-ALK protein tyrosine kinase (filter binding assay); assay type: biochemical; conditions: b80; assay not specified further; lower end printed as <0.5; read-out: IC50, inhibition of tyrosine kinase activity of anaplastic lymphoma kinase (ALK)
Protocol: Assays are incubated for 10 min at ambient temperature. […] Following washing (0.5% H3PO4), plates are counted in a liquid scintillation counter. IC50 values are calculated by linear regression analysis of the percentage inhibition.

Chain of FAK (P34152 2-1052): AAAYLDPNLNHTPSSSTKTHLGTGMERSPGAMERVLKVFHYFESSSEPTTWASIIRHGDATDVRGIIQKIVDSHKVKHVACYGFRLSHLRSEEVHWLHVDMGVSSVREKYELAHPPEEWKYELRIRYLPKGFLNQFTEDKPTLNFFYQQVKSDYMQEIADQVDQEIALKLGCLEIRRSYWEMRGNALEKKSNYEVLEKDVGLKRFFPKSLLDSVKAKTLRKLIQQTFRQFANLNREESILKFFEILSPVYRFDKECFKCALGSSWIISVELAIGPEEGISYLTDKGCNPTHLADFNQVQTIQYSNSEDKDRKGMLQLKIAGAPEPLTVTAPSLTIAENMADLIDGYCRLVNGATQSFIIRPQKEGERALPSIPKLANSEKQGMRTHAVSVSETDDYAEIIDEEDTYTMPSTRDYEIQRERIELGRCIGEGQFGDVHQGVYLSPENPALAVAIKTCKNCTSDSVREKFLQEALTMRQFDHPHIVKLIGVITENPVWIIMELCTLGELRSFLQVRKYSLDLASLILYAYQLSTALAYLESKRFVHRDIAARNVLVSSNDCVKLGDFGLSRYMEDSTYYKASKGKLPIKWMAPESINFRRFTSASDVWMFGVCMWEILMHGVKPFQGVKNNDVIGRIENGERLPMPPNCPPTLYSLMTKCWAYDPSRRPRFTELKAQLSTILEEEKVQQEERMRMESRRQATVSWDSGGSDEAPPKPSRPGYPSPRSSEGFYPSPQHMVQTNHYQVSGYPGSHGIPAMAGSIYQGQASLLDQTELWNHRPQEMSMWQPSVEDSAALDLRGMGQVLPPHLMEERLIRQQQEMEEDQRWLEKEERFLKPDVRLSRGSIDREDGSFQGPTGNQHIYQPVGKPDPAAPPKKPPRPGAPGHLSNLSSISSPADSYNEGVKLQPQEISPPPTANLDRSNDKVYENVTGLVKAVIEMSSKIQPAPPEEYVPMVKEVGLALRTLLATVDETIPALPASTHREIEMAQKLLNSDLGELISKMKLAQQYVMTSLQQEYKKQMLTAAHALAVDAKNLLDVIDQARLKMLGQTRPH
Chain of Focal Adhesion Kinase (FAK) (Q05397 384-706): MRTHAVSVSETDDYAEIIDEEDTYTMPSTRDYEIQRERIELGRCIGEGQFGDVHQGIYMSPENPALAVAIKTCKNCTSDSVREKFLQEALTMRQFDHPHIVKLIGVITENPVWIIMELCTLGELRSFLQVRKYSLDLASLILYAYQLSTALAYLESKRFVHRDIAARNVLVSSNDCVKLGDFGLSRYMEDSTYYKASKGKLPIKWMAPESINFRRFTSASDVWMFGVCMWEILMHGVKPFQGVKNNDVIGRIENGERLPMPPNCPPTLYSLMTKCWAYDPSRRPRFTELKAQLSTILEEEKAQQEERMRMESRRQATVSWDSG
Chain of IGF-IR (P08069 31-1367): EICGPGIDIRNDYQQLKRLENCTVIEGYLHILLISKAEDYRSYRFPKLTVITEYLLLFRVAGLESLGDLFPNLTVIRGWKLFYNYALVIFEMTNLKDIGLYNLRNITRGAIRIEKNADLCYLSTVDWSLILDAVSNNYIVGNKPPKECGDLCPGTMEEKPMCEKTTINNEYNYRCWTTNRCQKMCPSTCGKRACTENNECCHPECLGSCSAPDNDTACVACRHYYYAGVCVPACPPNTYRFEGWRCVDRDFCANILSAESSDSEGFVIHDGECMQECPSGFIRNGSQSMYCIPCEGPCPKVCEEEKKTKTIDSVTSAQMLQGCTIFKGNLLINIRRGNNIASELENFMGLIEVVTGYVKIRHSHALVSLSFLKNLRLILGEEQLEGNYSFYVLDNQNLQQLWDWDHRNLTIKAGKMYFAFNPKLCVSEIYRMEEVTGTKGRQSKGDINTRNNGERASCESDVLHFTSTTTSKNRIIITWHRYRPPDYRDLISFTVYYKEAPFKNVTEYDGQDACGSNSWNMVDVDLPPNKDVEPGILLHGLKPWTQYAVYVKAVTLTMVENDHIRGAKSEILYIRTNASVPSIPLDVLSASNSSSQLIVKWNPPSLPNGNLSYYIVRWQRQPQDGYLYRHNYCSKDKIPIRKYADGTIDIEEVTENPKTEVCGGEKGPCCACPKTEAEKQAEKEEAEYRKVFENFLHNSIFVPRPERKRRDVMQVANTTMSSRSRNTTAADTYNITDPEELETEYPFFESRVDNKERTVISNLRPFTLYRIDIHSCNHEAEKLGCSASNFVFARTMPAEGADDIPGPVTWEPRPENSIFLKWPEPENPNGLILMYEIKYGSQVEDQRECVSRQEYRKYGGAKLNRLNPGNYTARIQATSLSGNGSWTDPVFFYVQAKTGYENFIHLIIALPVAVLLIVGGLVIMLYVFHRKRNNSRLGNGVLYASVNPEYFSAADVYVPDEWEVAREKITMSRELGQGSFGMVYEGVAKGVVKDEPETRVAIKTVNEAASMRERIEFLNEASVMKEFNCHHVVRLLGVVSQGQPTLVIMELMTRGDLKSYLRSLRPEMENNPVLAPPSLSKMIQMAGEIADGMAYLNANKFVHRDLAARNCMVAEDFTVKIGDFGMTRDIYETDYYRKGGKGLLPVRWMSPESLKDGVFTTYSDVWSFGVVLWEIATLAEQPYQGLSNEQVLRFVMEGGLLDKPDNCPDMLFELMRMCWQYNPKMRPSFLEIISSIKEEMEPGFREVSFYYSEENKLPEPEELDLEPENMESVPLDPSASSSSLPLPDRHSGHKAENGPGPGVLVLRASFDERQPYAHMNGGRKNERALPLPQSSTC
Chain of GST-ALK protein tyrosine kinase (Q9UM73 1116-1392): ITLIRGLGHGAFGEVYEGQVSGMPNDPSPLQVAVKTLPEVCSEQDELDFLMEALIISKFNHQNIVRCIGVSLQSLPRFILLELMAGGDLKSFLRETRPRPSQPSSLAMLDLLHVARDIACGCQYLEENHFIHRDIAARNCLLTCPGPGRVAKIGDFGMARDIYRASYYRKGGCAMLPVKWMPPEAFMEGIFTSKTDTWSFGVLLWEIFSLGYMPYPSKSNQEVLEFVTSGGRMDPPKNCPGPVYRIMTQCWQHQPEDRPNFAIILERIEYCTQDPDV

Compound | IC50 [1] [nM] | IC50 [2] [nM] | IC50 [3] [nM] | IC50 [4] [nM] | IC50 ([5]; read-out: FAK IC50) [nM] | IC50 [6] [nM] | IC50 [7] [nM] | IC50 ([5]; FAK IC50) [nM]
CNS(=O)(=O)c1ccccc1Nc1nc(Nc2cc(OCCN3CCOCC3)ccc2OC)ncc1Br [Example 3-35] | 3550 | 800 | 20 | 170 | 13 |  |  | 
CNS(=O)(=O)c1ccccc1Nc1nc(Nc2ccc(OC3CCN(C)CC3)cc2OC)ncc1Br [Example 3-33] | 130 | 90 | 30 | 50 | 2.9 |  |  | 
COc1cc(N2CCC(N(C)C)C2)ccc1Nc1ncc(Cl)c(Nc2ccccc2S(=O)(=O)NC(C)C)n1 (stereo not drawn) [Example 19-9] | 480 | 300 |  | 390 |  |  |  | 1.3
CNC1CCN(c2ccc(Nc3ncc(Cl)c(Nc4ccccc4S(=O)(=O)NC(C)C)n3)c(OC)c2)C1 (stereo not drawn) [Example 19-1] | 1410 | 290 | 200 | 300 | < 1 |  |  | 
CNC(=O)c1ccccc1Nc1nc(Nc2ccc(N3CCOCC3)cc2OC)ncc1Cl [2-[5-chloro-2-(2-methoxy-4-morpholin-4-yl-phenylamino)-pyrimidin-4-ylamino]-N-methyl-benzamide] |  |  |  |  |  | 97 |  | 
CNS(=O)(=O)c1ccccc1Nc1nc(Nc2ccc(N3CCN(C)CC3)cc2OC)ncc1Br [Example 3-39] | 90 | 1000 | 20 | 30 | 2 |  |  | 
CNS(=O)(=O)c1ccccc1Nc1nc(Nc2cc(N3CCOCC3)ccc2OC)ncc1Br [Example 3-32] | 120 | 280 | 180 | 490 | 14 |  |  | 
COc1cc(N2CCOCC2)ccc1Nc1ncc(Cl)c(Nc2ccccc2S(=O)(=O)NC(C)C)n1 [Example 19-8] | 130 | 290 | 30 | 400 | 3.2 |  |  | 
CNC(=O)c1ccccc1Nc1nc(Nc2ccc(N3CCN4CCOC[C@H]4C3)cc2OC)ncc1Cl [Example 7-15] | 260 |  | 60 | 190 | 4.5 |  | 0.5 to 200 | 
CNC(=O)c1ccccc1Nc1nc(Nc2ccc(N3CCC(NC)C3)cc2OC)ncc1Cl (stereo not drawn) [Example 7-12] | 620 | 310 | 900 | 1000 | 1.9 |  |  | 
CC(C)NS(=O)(=O)c1ccccc1Nc1nc(Nc2ccc(OC3CCN(C)CC3)cc2F)ncc1Cl [Example 19-28] | 460 | 300 | 100 | 120 | 4.8 |  |  | 
CCNC(=O)c1ccccc1Nc1nc(Nc2ccc(N3CCOCC3)cc2OC)ncc1Cl [Example 9-1] |  | 600 | 360 | 1000 | 22 |  |  | 
CNS(=O)(=O)c1ccccc1Nc1nc(Nc2cc(N3CCC(N4CCCCC4)CC3)ccc2OC)ncc1Br [Example 3-69] |  | 580 | 200 | 110 | 4 |  |  | 
CNS(=O)(=O)c1ccccc1Nc1nc(Nc2ccc(N3CCN(C(C)=O)CC3)cc2OC)ncc1Br [Example 3-46] |  | 300 | 100 | 180 | 4 |  |  | 
CNS(=O)(=O)c1ccccc1Nc1nc(Nc2cc(N(C)C)ccc2OC)ncc1Br [Example 3-64] |  | 210 | 130 | 700 | 5 |  |  | 

Further lines, with some results ahead:

IC50 [1] [nM] | IC50 [2] [nM] | IC50 [3] [nM] | IC50 [4] [nM] | IC50 ([5]; read-out: FAK IC50) [nM] | IC50 [6] [nM] | IC50 [7] [nM] | Compound | IC50 ([5]; FAK IC50) [nM]
520 | 750 | 120 | 170 | 9 |  |  | CNS(=O)(=O)c1ccccc1Nc1nc(Nc2ccc(N3CCN(C(C)=O)CC3)cc2OC)ncc1Cl [Example 20-2] | 
390 | 90 | 30 | 120 | 1.9 |  |  | CCCS(=O)(=O)c1ccccc1Nc1nc(Nc2ccc(N3CCN(C(C)=O)CC3)cc2OC)ncc1Cl [Example 26-2] | 
1160 | 290 | 50 | 430 | 4.9 |  |  | CCCS(=O)(=O)c1ccccc1Nc1nc(Nc2ccc(N3CCC(O)CC3)cc2OC)ncc1Cl [Example 26-4] | 
230 |  | 100 | 130 | 1.4 |  | 0.5 to 200 | CCCS(=O)(=O)c1ccccc1Nc1nc(Nc2ccc(N3CCC(N4CCCCC4)CC3)cc2OC)ncc1Cl [Example 26-3] | 
700 | 250 | 300 | 180 | 10 |  |  | CNS(=O)(=O)c1ccccc1Nc1nc(Nc2ccc(N3CCOCC3)cc2OC)ncc1Cl [Example 20-1] | 
530 | 630 | 600 | 200 | 3.4 |  |  | CCC(CC)NS(=O)(=O)c1ccccc1Nc1nc(Nc2ccc(OC3CCN(C)CC3)cc2OC)ncc1Cl [Example 23-1] | 
